Values after ≈ are worked out from the molar mass of the structure shown.
What was measured:
[1] = Cyclic voltammetry / linear sweep voltammetry, electrochemical parameters; format: physicochemical; details: for Peak-to-peak separation ΔEp: 100 mV/s, third cycle
Method: Cyclic voltammetry experiments were performed at a 100 mV/s scan rate for compounds M3CH, D3CH, D4CH, M3SH, D3SH, M4SH and D4SH in solution at pH 13 (KOH 0.1 M) or pH 14 (KOH 1 M).
The electrochemical experiments were conducted on an electrochemical working station (BioLogic Science Instruments VSP) at 25° C. using a three-electrodes electrochemical cell, where a Pt wire was employed at the counter electrode (CE), an Ag/AgCl/KCl saturated electrode immerged in a 1 M KOH solution protected from the cell by a porous frit glass served as the reference electrode (RE) and a rotating disc electrode (RDE) mounted with a glassy carbon (GC, 7.069 mm^2) disk was used as the working electrode (WE), respectively. The potential was reported relative to the normal hydrogen electrode (NHE), which was converted from the Ag/AgCl reference electrode (0.230 V versus NHE). The ohmic drop between the WE and RE is determined by current interrupt experiments and leads to a value close to 0.7069 Ω·cm^2. All cyclic voltammetry experiments were conducted by alleviating most of this resistance (85%) using the potentiostat manual ohmic drop compensation. Before each electrochemical measurement, the GC disk electrode was polished using SiC P4000 foil.
Each recorded cyclic voltammetry of the reduction and the oxidation process of a compound at a given scan rate is analyzed by measuring ip,a=anodic peak current; ip,c=cathodic peak current; v=scan rate; Ep,a=anodic peak potential; Ep,c=cathodic peak potential; ΔEp=Ep,a−Ep,c; the apparent standard redox potential E^0′=[…].
Linear sweep voltammetry (LSV) using the RDE at various rotation speed (400 up to 1 000 RPM) were performed to determine the averaged half-wave potential E1/2.
The oxidation (DO) and the reduction (DR) diffusion coefficients were calculated using Randles-Sevcik (RS) equation ip=0.4463·n^3/2·F^3/2·A·C·v^1/2·D^1/2·R^−1/2·T^−1/2=Cye·v^1/2·D^1/2, n=number of electrons exchanged during the redox process; F=faradaic number=96485 C·mol^−1; A=electrode active surface; C=redox active molecule concentration; R=gas constant=8.314 J·K^−1·mol^−1; T=bulk temperature=299 K. The experiments are conducted by cyclic voltammetry at various scan rates ranging from 10 mV/s up to 20 V/s.
A graphic of lip,al and lip,cl=f(Cte×v^1/2) is plotted, if the redox process is reversible and diffusion controlled, the peak current should be proportional to the square root of the scan rate. The diffusion coefficients (oxidation and reduction) are then calculated by taking the square of the regression lines slopes. Diffusion coefficients (oxidation and reduction processes) are evaluated by plotting the peak current versus a constant multiplied by the square root of the scan rate. The plots regression line gives a straight line with perfect correlation coefficient (100%) confirming that the redox process is reversible and diffusion controlled. The square of each slope gives the associated coefficient diffusion in cm^2 s^−1.
The apparent heterogeneous rate constant during oxidation (k^0′O)/and reduction (k^0′R) process was calculated using Gileadi's equation (C. Rüssel, W. Jaenicke, Electrochimica Acta, Vol 27, N° 12, 1745-1750, 1982) log k^0′=−0.48α+0.52 +log[(nFαvcD)/(2.303RT)]^1/2; vc is the critical scan rate, it is calculated by plotting the peak potentials versus the logarithm of the scan rates, and is more precise when a very wide range of scan rates is used, which is the case here (0.010 up to 20 V·s^−1), it is determined at the x-axis of the point of intersection of the regression lines drawn at low and high scan rates; a is the transfer coefficient that is supposed to be close to 0.5 for all presented compounds.
Peak-to-peak separation ΔEp values were determined from the third cycle of each cyclic voltammogram (FIGS. 1 and 2) and are gathered in the following table 4.
The standard redox process reversibility evaluation is performed in diluted state, at 5 mM of concentration, at pH 14 buffered with 1 M of KOH. […]

[2] = Degradation study by 1H NMR of electrolyte heated at 40° C.; format: physicochemical
Method: This study consists of NMR ^1H measurements of an electrolyte heated at 40° C. and kept under stirring at 300 RPM using a magnetic stirrer.
Such behavior was detailed in the literature (WO 2019/157437) and is characteristic of a nucleophilic attack i.e. of OH^− in strong alkaline environment causing the functionalized arm to be cleaved.

[3] = Cycling tests of redox flow battery cells in galvanostatic mode; details: Test 1: 0.5 M M3CH, pH 13.0
[4] = Solubility in aqueous solution at various pH by shake-flask method; details: thermodynamic from solid
[5] = Cycling tests of redox flow battery cells in constant power cycling mode; details: extrapolated from 5 days; flowrate 0.5 mL/min/cm^2; negolyte 120/120/40/370 mL

E^0′ apparent standard redox potential ([1]; 5 mM, pH 14, 1 M KOH): −0.484 V vs NHE
E1/2 half-wave potential ([1]; 5 mM, pH 14, 1 M KOH, RDE): −0.484 V vs NHE
k^0′O × 10^−2 apparent heterogeneous rate constant ([1]; Gileadi's equation): 2.3 × 10^−2 cm/s
DO × 10^−6 diffusion coefficient ([1]; Randles-Sevcik): 5.2 × 10^−6 cm^2/s
Peak-to-peak separation ΔEp ([1]; pH 13 (KOH 0.1 M)): 140 mV
Peak-to-peak separation ΔEp ([1]; pH 14 (KOH 1 M)): 31 mV
degradation rate ([2]; 0.05 M, pH 13.9, 40° C.): roughly 15 % per month
degradation after a month ([2]; 0.4 M, pH 13.5, 0.8 M KOH, 0.3 M NaOH, 40° C.): did not undergo any degradation
solubility over state-of-charge [3]: soluble at every state-of-charge
solubility ([4]; aqueous H2SO4 1M solution, pH 0, aqueous buffer): 310 mM (≈ 101 mg/mL)
solubility ([4]; aqueous KOH 1M solution, pH 14, aqueous buffer): 530 mM (≈ 173 mg/mL)
Stability in cycles (−20%) [5]: 28449 cycles
Stability in days (−20%) [5]: 10942.1 days
SMILES: O=C(O)CCCOc1ccc(O)c2c1C(=O)c1ccccc1C2=O [Compound M3CH]

— US12438175B2, “Aqueous organic-based electrolyte for redox flow battery” (KEMIWATT, priority 2019, dated 2025)
